This is an account of results in patent publication US20250215012A1, “IKZF2 DEGRADERS AND USES THEREOF” (REGENTS OF THE UNIVERSITY OF MICHIGAN, priority 2022, published 2025).

Structures are written as SMILES.

The target in the assay is IKZF2 (Homo sapiens (Human), UniProt Q96SW2+Q9UKS7). In words: IKZF2 HiBiT Assay (Jurkat-IKZF2-HiBiT cell line). It is filed as cell-based. Particulars: Jurkat-IKZF2-HiBiT cells, 24 hours; for DC50: read-out: HiBit assay degradation analysis DC50; for Dmax: read-out: HiBit assay degradation analysis Dmax. Put shortly: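 Jurkat cells carrying HiBiT-tagged IKZF2 were exposed to serially diluted compound for 24 h at 37 °C. Remaining IKZF2 was measured by Nano-Glo HiBiT lytic luminescence after 10-20 min at room temperature. Signal was normalized to DMSO, and IC50 came from a four-parameter variable-slope fit.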
Chain of IKZF2 (Q9UKS7 whole entry): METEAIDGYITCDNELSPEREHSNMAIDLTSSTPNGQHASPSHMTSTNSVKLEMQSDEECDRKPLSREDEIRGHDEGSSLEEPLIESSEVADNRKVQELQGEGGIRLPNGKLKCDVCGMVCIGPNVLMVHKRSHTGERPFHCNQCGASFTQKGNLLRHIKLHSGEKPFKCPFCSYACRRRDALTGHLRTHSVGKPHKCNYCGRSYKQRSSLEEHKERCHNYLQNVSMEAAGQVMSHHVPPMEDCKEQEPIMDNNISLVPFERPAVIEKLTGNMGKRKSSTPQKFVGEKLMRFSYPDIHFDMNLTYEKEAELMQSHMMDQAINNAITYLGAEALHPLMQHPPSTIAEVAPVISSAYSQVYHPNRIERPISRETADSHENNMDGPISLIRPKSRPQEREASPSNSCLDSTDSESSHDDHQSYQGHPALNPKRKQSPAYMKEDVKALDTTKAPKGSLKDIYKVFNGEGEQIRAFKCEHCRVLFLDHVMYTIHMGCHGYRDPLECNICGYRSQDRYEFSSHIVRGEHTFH
Chain of IKZF2 (Q96SW2 whole entry): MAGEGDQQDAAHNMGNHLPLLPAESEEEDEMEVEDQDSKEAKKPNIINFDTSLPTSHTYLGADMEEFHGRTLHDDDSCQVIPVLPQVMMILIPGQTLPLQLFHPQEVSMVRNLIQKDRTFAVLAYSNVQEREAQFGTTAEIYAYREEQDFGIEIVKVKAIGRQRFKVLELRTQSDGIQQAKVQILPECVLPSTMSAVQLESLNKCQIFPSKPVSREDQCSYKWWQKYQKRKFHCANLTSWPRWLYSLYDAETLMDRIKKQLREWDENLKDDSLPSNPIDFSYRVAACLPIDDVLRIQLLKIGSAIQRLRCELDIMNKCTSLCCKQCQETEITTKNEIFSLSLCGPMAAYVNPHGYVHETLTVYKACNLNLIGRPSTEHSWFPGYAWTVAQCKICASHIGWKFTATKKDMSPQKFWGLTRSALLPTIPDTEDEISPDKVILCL
Chain of IKZF2 (Q16531 whole entry partner): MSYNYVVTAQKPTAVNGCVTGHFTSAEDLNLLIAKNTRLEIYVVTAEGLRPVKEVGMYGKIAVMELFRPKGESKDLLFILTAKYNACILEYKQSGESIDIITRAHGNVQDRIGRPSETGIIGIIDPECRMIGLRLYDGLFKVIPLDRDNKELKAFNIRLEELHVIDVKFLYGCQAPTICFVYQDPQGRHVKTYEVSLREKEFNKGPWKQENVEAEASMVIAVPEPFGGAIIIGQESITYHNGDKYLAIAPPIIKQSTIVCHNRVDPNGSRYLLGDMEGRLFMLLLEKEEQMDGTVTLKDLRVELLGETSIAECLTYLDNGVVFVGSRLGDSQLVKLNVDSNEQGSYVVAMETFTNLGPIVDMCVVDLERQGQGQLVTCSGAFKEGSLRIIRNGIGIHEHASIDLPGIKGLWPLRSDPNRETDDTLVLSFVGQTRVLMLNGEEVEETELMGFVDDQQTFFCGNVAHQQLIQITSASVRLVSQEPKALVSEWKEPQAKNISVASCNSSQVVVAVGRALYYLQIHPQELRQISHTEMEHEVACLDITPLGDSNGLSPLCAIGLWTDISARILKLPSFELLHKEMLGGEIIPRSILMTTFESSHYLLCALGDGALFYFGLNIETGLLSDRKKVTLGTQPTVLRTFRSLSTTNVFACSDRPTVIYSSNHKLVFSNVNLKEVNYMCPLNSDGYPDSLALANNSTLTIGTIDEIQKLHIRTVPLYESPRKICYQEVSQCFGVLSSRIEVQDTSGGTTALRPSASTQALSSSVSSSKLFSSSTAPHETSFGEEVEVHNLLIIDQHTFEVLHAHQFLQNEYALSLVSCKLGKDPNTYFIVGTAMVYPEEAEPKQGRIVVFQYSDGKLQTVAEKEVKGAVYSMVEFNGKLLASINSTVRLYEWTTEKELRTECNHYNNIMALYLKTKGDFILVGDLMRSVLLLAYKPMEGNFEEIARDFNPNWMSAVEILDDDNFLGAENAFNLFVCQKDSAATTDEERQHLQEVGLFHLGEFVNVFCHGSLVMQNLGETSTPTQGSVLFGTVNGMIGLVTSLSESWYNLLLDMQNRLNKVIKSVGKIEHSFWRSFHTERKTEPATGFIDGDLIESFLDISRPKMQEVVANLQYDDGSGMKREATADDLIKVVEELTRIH
A general note: HiBiT is a short tag that completes a luciferase, so light tracks the accessible tagged protein.

Broadly, the DC50 is the concentration giving 50% degradation. For orientation: Dmax means the largest share of the target that was removed. Regarding `Cn1cc(-c2cccc(CN3CCC4(CC3)CNc3c4ccc4c3CN(C3CCC(=O)NC3=O)C4=O)c2)cn1` (centres unmarked) [Compound A309, 3-(1-(3-(1-methyl-1H-pyrazol-4-yl)benzyl)-6′-oxo-1′,2′,6′,8′-tetrahydro-7′H-spiro[piperidine-4,3′-pyrrolo[3,4-g]indol]-7′-yl)piperidine-2,6-dione], the DC50 was greater than 500 nM and the Dmax lay within 40 to 60%.
For the molecule `O=C1CCC(N2Cc3c(ccc4c3OCC43CCN(Cc4cnn(-c5ccccc5F)c4)CC3)C2=O)C(=O)N1` (centres unmarked) [Compound A310, 3-(1′-((1-(2-fluorophenyl)-1H-pyrazol-4-yl)methyl)-6-oxo-6,8-dihydro-2H,7H-spiro[furo[2,3-e]isoindole-3,4′-piperidin]-7-yl)piperidine-2,6-dione], the DC50 is greater than 500 nM and the Dmax is less than 40%.
The corresponding values for `O=C1CCC(N2Cc3c(ccc4c3OCC43CCN(Cc4cnn(-c5cccc(F)c5)c4)CC3)C2=O)C(=O)N1` (centres unmarked) [Compound A311, 3-(1′-((1-(3-fluorophenyl)-1H-pyrazol-4-yl)methyl)-6-oxo-6,8-dihydro-2H,7H-spiro[furo[2,3-e]isoindole-3,4′-piperidin]-7-yl)piperidine-2,6-dione] are greater than 500 nM and 40 to 60%.
On the same counts, the results for `O=C1CCC(N2Cc3c(ccc4c3OCC43CCN(Cc4cnn(-c5ccc(F)cc5)c4)CC3)C2=O)C(=O)N1` (centres unmarked) [Compound A312, 3-(1′-((1-(4-fluorophenyl)-1H-pyrazol-4-yl)methyl)-6-oxo-6,8-dihydro-2H,7H-spiro[furo[2,3-e]isoindole-3,4′-piperidin]-7-yl)piperidine-2,6-dione] are greater than 500 nM and 40 to 60%.
For `O=C1CCC(N2Cc3c(ccc4c3OCC43CCN(Cc4cnn(-c5cccc(Cl)c5)c4)CC3)C2=O)C(=O)N1` (centres unmarked) [Compound A313, 3-(1′-((1-(3-chlorophenyl)-1H-pyrazol-4-yl)methyl)-6-oxo-6,8-dihydro-2H,7H-spiro[furo[2,3-e]isoindole-3,4′-piperidin]-7-yl)piperidine-2,6-dione], the DC50 was 50 to 200 nM and the Dmax was in the range of 60 to 80%.
For the molecule `O=C1CCC(N2Cc3c(ccc4c3OCC43CCN(Cc4cnn(-c5ccc(Cl)cc5)c4)CC3)C2=O)C(=O)N1` (centres unmarked) [Compound A314, 3-(1′-((1-(4-chlorophenyl)-1H-pyrazol-4-yl)methyl)-6-oxo-6,8-dihydro-2H,7H-spiro[furo[2,3-e]isoindole-3,4′-piperidin]-7-yl)piperidine-2,6-dione], the DC50 was less than 50 nM and the greatest degradation seen (Dmax) fell in the range of 60 to 80%.
The corresponding values for `O=C1CC[C@H](N2Cc3c(ccc4c3OCC43CCN(Cc4ccn(-c5ccc(Cl)cc5)n4)CC3)C2=O)C(=O)N1` [Compound A315, (S)-3-(1′-((1-(4-chlorophenyl)-1H-pyrazol-3-yl)methyl)-6-oxo-6,8-dihydro-2H,7H-spiro[furo[2,3-e]isoindole-3,4′-piperidin]-7-yl)piperidine-2,6-dione] are 50 to 200 nM and 40 to 60%.
In the case of `O=C1CCC(N2Cc3c(ccc4c3OCC43CCN(Cc4ccn(-c5cccc(F)c5)n4)CC3)C2=O)C(=O)N1` (centres unmarked) [Compound A316, 3-(1′-((1-(3-fluorophenyl)-1H-pyrazol-3-yl)methyl)-6-oxo-6,8-dihydro-2H,7H-spiro[furo[2,3-e]isoindole-3,4′-piperidin]-7-yl)piperidine-2,6-dione], the DC50 was greater than 500 nM and the Dmax fell in the range of 40 to 60%.
Take `O=C1CC[C@H](N2Cc3c(ccc4c3OCC43CCN(Cc4ccccc4)CC3)C2=O)C(=O)N1` [Compound A317, (S)-3-(1′-benzyl-6-oxo-6,8-dihydro-2H,7H-spiro[furo[2,3-e]isoindole-3,4′-piperidin]-7-yl)piperidine-2,6-dione]: the DC50 fell in the range of 200 to 500 nM and the Dmax fell in the range of 40 to 60%.
The corresponding values for `CC(c1ccccc1)N1CCC2(CC1)COc1c2ccc2c1CN(C1CCC(=O)NC1=O)C2=O` (centres unmarked) [Compound A318, 3-(6-oxo-1′-(1-phenylethyl)-6,8-dihydro-2H,7H-spiro[furo [2,3-e]isoindole-3,4′-piperidin]-7-yl)piperidine-2,6-dione] are less than 50 nM and 60 to 80%.
On the same counts, the results for `O=C1CCC(N2Cc3c(ccc4c3OCC43CCN(Cc4cnn(CC5COC5)c4)CC3)C2=O)C(=O)N1` (centres unmarked) [Compound A319, 3-(1′-((1-(oxetan-3-ylmethyl)-1H-pyrazol-4-yl)methyl)-6-oxo-6,8-dihydro-2H,7H-spiro[furo[2,3-e]isoindole-3,4′-piperidin]-7-yl)piperidine-2,6-dione] are greater than 500 nM and less than 40%.
On the same counts, the results for `CC1(Cn2cc(CN3CCC4(CC3)COc3c4ccc4c3CN(C3CCC(=O)NC3=O)C4=O)cn2)COC1` (centres unmarked) [Compound A320, 3-(1′-((1-((3-methyloxetan-3-yl)methyl)-1H-pyrazol-4-yl)methyl)-6-oxo-6,8-dihydro-2H,7H-spiro[furo[2,3-e]isoindole-3,4′-piperidin]-7-yl)piperidine-2,6-dione] are greater than 500 nM and 40 to 60%.
As for `O=C1CCC(N2Cc3c(ccc4c3OCC43CCN(Cc4ccn(-c5ccccc5Cl)n4)CC3)C2=O)C(=O)N1` (centres unmarked) [Compound A321, 3-(1′-((1-(2-chlorophenyl)-1H-pyrazol-3-yl)methyl)-6-oxo-6,8-dihydro-2H,7H-spiro[furo[2,3-e]isoindole-3,4′-piperidin]-7-yl)piperidine-2,6-dione], the DC50 is greater than 500 nM and the Dmax is less than 40%.
`O=C1CCC(N2Cc3c(ccc4c3OCC43CCN(Cc4ccn(-c5ccc(F)cc5)n4)CC3)C2=O)C(=O)N1` (centres unmarked) [Compound A322, 3-(1′-((1-(4-fluorophenyl)-1H-pyrazol-3-yl)methyl)-6-oxo-6,8-dihydro-2H,7H-spiro[furo[2,3-e]isoindole-3,4′-piperidin]-7-yl)piperidine-2,6-dione]: the DC50 is greater than 500 nM and the Dmax was less than 40%.
Take `O=C1CCC(N2Cc3c(ccc4c3OCC43CCN(Cc4ccn(-c5ccccc5F)n4)CC3)C2=O)C(=O)N1` (centres unmarked) [Compound A323, 3-(1′-((1-(2-fluorophenyl)-1H-pyrazol-3-yl)methyl)-6-oxo-6,8-dihydro-2H,7H-spiro[furo[2,3-e]isoindole-3,4′-piperidin]-7-yl)piperidine-2,6-dione]: the DC50 is greater than 500 nM and the Dmax was less than 40%.
On to `O=C1CCC(N2Cc3c(ccc4c3OCC43CCN(Cc4nccc5c4CCCC5)CC3)C2=O)C(=O)N1` (centres unmarked) [Compound A324, 3-(6-oxo-1′-((5,6,7,8-tetrahydroisoquinolin-1-yl)methyl)-6,8-dihydro-2H,7H-spiro[furo [2,3-e]isoindole-3,4′-piperidin]-7-yl)piperidine-2,6-dione], for which the 50% degradation concentration (DC50) is greater than 500 nM and the Dmax was 40 to 60%.
On the same counts, the results for `O=C1CCC(N2Cc3c(ccc4c3OCC43CCN(Cc4cnc5c(c4)CCCC5)CC3)C2=O)C(=O)N1` (centres unmarked) [Compound A325, 3-(6-oxo-1′-((5,6,7,8-tetrahydroquinolin-3-yl)methyl)-6,8-dihydro-2H,7H-spiro[furo [2,3-e]isoindole-3,4′-piperidin]-7-yl)piperidine-2,6-dione] are greater than 500 nM and less than 40%.
The corresponding values for `CC1(C)Cc2c(CN3CCC4(CC3)COc3c4ccc4c3CN(C3CCC(=O)NC3=O)C4=O)cccc2O1` (centres unmarked) [Compound A326, 3-(1′-((2,2-dimethyl-2,3-dihydrobenzofuran-4-yl)methyl)-6-oxo-6,8-dihydro-2H,7H-spiro[furo[2,3-e]isoindole-3,4′-piperidin]-7-yl)piperidine-2,6-dione] are greater than 500 nM and 40 to 60%.
In the case of `CC1(C)CCc2cccc(CN3CCC4(CC3)COc3c4ccc4c3CN(C3CCC(=O)NC3=O)C4=O)c2O1` (centres unmarked) [Compound A327, 3-(1′-((2,2-dimethylchroman-8-yl)methyl)-6-oxo-6,8-dihydro-2H,7H-spiro[furo[2,3-e]isoindole-3,4′-piperidin]-7-yl)piperidine-2,6-dione], the DC50 lay in the range of 50 to 200 nM and the Dmax lay in the range of 60 to 80%.
`O=C1CCC(N2Cc3c(ccc4c3OCC43CCN(Cc4nn(CC5COCCO5)c5ccccc45)CC3)C2=O)C(=O)N1` (centres unmarked) [Compound A328, 3-(1′-((1-((1,4-dioxan-2-yl)methyl)-1H-indazol-3-yl)methyl)-6-oxo-6,8-dihydro-2H,7H-spiro[furo[2,3-e]isoindole-3,4′-piperidin]-7-yl)piperidine-2,6-dione]: the DC50 is less than 50 nM and the Dmax lay in the range of 60 to 80%.
On the same counts, the results for `O=C1CCC(N2Cc3c(ccc4c3OCC43CCN(Cc4nn(CC5CCCCC5)c5ccccc45)CC3)C2=O)C(=O)N1` (centres unmarked) [Compound A329, 3-(1′-((1-(cyclohexylmethyl)-1H-indazol-3-yl)methyl)-6-oxo-6,8-2H,7H-spiro[furo[2,3-e]isoindole-3,4′-piperidin]-7-yl)piperidine-2,6-dione] are 50 to 200 nM and 60 to 80%.
For `CCC(c1ccccc1)N1CCC2(CC1)COc1c2ccc2c1CN(C1CCC(=O)NC1=O)C2=O` (centres unmarked) [Compound A330, 3-(6-oxo-1′-(1-phenylpropyl)-6,8-dihydro-2H,7H-spiro[furo[2,3-e]isoindole-3,4′-piperidin]-7-yl)piperidine-2,6-dione], the DC50 was less than 50 nM and the maximal degradation (Dmax) lay in the range of 60 to 80%.
For the molecule `O=C1CCC(N2Cc3c(ccc4c3OCC43CCN(Cc4cnn(-c5ccccc5Cl)c4)CC3)C2=O)C(=O)N1` (centres unmarked) [Compound A331, 3-(1′-((1-(2-chlorophenyl)-1H-pyrazol-4-yl)methyl)-6-oxo-6,8-dihydro-2H,7H-spiro[furo[2,3-e]isoindole-3,4′-piperidin]-7-yl) piperidine-2,6-dione], the DC50 is greater than 500 nM and the Dmax is less than 40%.
For the molecule `O=C1CCC(N2Cc3c(ccc4c3OCC43CCN(C[C@H]4C[C@@H]4c4ccccc4)CC3)C2=O)C(=O)N1` (stereo partly drawn) [Compound A332, 3-(6-oxo-1′-(((1S,2S)-2-phenylcyclopropyl)methyl)-6,8-dihydro-2H,7H-spiro[furo[2,3-e]isoindole-3,4′-piperidin]-7-yl)piperidine-2,6-dione], the DC50 is greater than 500 nM.
